Assay results as given in patent US6814972B2, “Composition for prevention and/or treatment of vascular diseases, comprising propionyl L-carnitine and coenzyme Q10” (priority 2000, dated 2004).
“Also recorded” adds a separate entry of the source.

Key:
[1] = tested on: vascular thrombosis of the rat tail induced by K-carrageenin and endothelin-1; test: Experimental thrombotic vascular disease test (K-carrageenin + endothelin-1, rat tail); format: in vivo; details: for % inhibition of thrombosis after 2 h: 2 h after K-carrageenin; for % inhibition of thrombosis after 24 h: 24 h after K-carrageenin; for protective effect against the onset or severity of the vasculopathy lesions induced (in words): summary of Tables 1 and 2
Method: The method used in these tests was that described by Bekemeier (Bekemeier H., Agents and Actions, 16:446, 1985) modified by Bertelli (Bertelli A., Drugs Exptl. Clin. Res., 19:7, 1993) which consists in injecting K-carrageenin (0.5 mg/kg carrageenin, Sigma Chemical St. Louis Mo., USA) into the dorsal artery of the rat tail and, immediately prior to the K-carrageenin injection, 500 pmol/kg of endothelin-1 (Peninsula Laboratories, Belmont Calif., USA) by intravenous injection. With this method, as early as the second hour after injection of K-carrageenin, vascular thrombosis developed which could be estimated by measuring the length of the infarcted portion of the tail, the length of the entire tail and the ratio between the two (% infarcted tail).
The phenomenon was assessed two and twenty-four hours after injection of K-carrageenin. […]

[2] = tested on: ischaemic area caused by occlusion of middle cerebral artery (MCA); test: Experimental cerebral ischaemia test (endothelin-1 occlusion of middle cerebral artery); format: in vivo, rat; details: for Extent of cerebral ischaemia due to occlusion of the MCA (% reduction in volume compared to controls): intravenous, five minutes after endothelin injection, carnitines 100 mg/kg, coenzyme Q10 50 mg/kg, evaluated three days later; for ability to reduce the extent of the ischaemia induced by occlusion of the MCA (in words): summary of Table 3
Method: With this test, the ischaemic area caused by occlusion of middle cerebral artery (MCA) was evaluated using the method described by Scharkey (Scharkey Y., Nature, 371:336, 1994), performed by injecting endothelin-1 (120 pmol in […]) in 5 minutes into anaesthetised rats with a microcannula placed stereotactically in the piriform cortex at the level of the middle cerebral artery. With this method, occlusion of the middle cerebral artery is induced and the resulting ischaemic area can be visualised three days later with transcardiac perfusion of a paraformaldehyde solution (4% in PBS). After extracting the cerebral mass, the latter was placed for twenty-four hours in a fixative containing 10% sucrose, and cryostat sections ([…]) fixed with resyl violet were examined under the optical microscope. The volume of the infarcted area was calculated according to the method described by Park (Park C. K., Ann. Neurol., 20:150, 1989).

[3] = tested on: papillary muscle of rabbit heart subjected to hypoxia; test: Myocardial anti-anoxic activity test (ATP in hypoxic papillary muscle); format: in vivo; details: for ATP concentrations, after hypoxia / ATP concentrations, before hypoxia: daily i.v. for three days (carnitines 100 mg/kg, combination 5 x 25 mg/kg, coenzyme Q10 50 mg/kg); for ATP concentrations, after hypoxia: after a 90 min anoxia period; for ATP concentrations, before hypoxia: papillary muscle under oxygen perfusion for 90 min; for preservation of ATP concentrations in papillary muscle (in words): summary of Table 4
Source text: This test was used to assess the ability of propionyl L-carnitine to protect the myocardium against the loss of ATP induced by anoxia and to preserve energy capacity even in these conditions.
An attempt was therefore made to establish whether prior treatment with propionyl L-carnitine, L-carnitine, carnitine combination or coenzyme Q10 alone or in combination with propionyl L-carnitine or with the other preparations was capable of preserving normal ATP concentrations in the hypoxic myocardium.
After three days of treatment, all the animals were sacrificed. Sections of papillary muscle measuring 1 mm in diameter and 4-5 mm in thickness were isolated. These samples of papillary muscle were perfused in a thermostatic bath with a saturated solution of 100% O2. The hypoxia was then produced by introducing 100% N2 in the bath in place of O2. The ATP concentrations in papillary muscle were measured using the method described by Strehler (Strehler B. L., Methods in Enzymology, 111, N.Y. Acad. Press, 879, 1957). The analysis was done on tissue samples maintained under oxygen perfusion for 90 min and after a 90 min anoxia period.

[4] = tested on: mice administered scopolamine; test: Learning test (water maze, scopolamine-treated mice); format: in vivo, mouse; details: for activity in the learning test (in words): summary of Table 5; for Latency period, administration (per os, 3 days): oral for three consecutive days, carnitines 300 mg/kg, coenzyme Q10 20 mg/kg; for Latency period, administration (per os, 3 days) / Latency period, administration (I.P.): scopolamine 3 mg/kg i.p.; for Latency period, administration (I.P.): single intraperitoneal dose one hour before test, carnitines 100 mg/kg, coenzyme Q10 50 mg/kg
Method: These tests were performed in mice using the water maze procedure as described by Morris (Morris R., J. Neurosci. Meth., 11:47, 1984) and modified by Lin (Lin Y., Acta Pharmacol. Sin., 19:413, 1998). The procedure consists in placing, in a maze situated in a tank containing water (80 cm×50 cm×20 cm) 10 cm deep, mice of both sexes weighing approximately 20 g each, which, after a suitable period of training in the task of finding their way back to the final platform and after selecting those that took less than 20 min to do so, were divided into various groups.
Both intraperitoneal and oral administration were carried out one hour prior to the start of the test. Half an hour before the start all the animals were administered scopolamine intraperitoneally at the dose of 3 mg/kg. As is known, scopolamine induces abnormalities of spatial orientation and prolongs latency time in finding the way to reach the platform.
After the test the latency time to reach the platform was calculated for each animal.

Sprague-Dawley male rats = test: Toxicology test, single oral administration of high doses; format: in vivo; details: propionyl L-carnitine 2 g/kg, coenzyme Q10 0.2 g/kg, or the same amounts in combination
Source text: Their use in combination also produces no damaging toxicological effects.

[5] = intravenous administration, carnitines 50 mg/kg (combination 5 x 10 mg/kg), coenzyme Q10 20 mg/kg
[6] = oral administration for four days prior to the test, carnitines 300 mg/kg (combination 5 x 75 mg/kg), coenzyme Q10 100 mg/kg

Row | SMILES | % inhibition of thrombosis after 2 h [1, 5] | % inhibition of thrombosis after 24 h [1, 5] | % inhibition of thrombosis after 2 h [1, 6] | % inhibition of thrombosis after 24 h [1, 6] | protective effect against the onset or severity of the vasculopathy lesions induced (in words) [1] | Extent of cerebral ischaemia due to occlusion of the MCA (% reduction in volume compared to controls) [2] | ability to reduce the extent of the ischaemia induced by occlusion of the MCA (in words) [2] | ATP concentrations, after hypoxia [3] | ATP concentrations, before hypoxia [3] | activity in the learning test (in words) [4] | preservation of ATP concentrations in papillary muscle (in words) [3] | Latency period, administration (per os, 3 days) [4] | Latency period, administration (I.P.) [4] | toxic effects or signs of intolerance (Sprague-Dawley male rats)
1 | CC(=O)O[C@H](CC(=O)[O-])C[N+](C)(C)C [Acetyl L-carnitine, acetyl L-carnitine] | 8.8 ± 0.7% | 10.6 ± 0.8% | 9.2 ± 0.8% | 11.5 ± 1.5% | ineffective | 15.8 ± 1.4% | no significant protective effect | 0.54 ± 0.075 µmol/g tissue | 1.58 ± 0.98 µmol/g tissue | only poor activity | – | – | – | –
2 | COC1=C(OC)C(=O)C(C/C=C(\C)CC/C=C(\C)CC/C=C(\C)CC/C=C(\C)CC/C=C(\C)CC/C=C(\C)CC/C=C(\C)CC/C=C(\C)CC/C=C(\C)CCC=C(C)C)=C(C)C1=O [Coenzyme Q10, coenzyme Q10] | 11.7 ± 0.9% | 14.5 ± 1.3% | 13.8 ± 1.7% | 12.5 ± 1.7% | poorly effective | 22.2 ± 2.9% | – | 0.64 ± 0.068 µmol/g tissue | 1.65 ± 0.7 µmol/g tissue | – | at least partially maintaining the ATP concentrations | 31 ± 12 s | 31 ± 18 s | –
3 | C[N+](C)(C)C[C@H](O)CC(=O)[O-] [L-carnitine] | 9.5 ± 0.4% | 11.5 ± 0.9% | 8.5 ± 0.5% | 9.2 ± 1.2% | ineffective | 10.5 ± 0.77% | no significant protective effect; also recorded: much less pronounced | 0.5 ± 0.045 µmol/g tissue | 1.55 ± 0.8 µmol/g tissue | inactive | Much more limited | 39 ± 21 s | 40 ± 20 s | –
4 | CCC(=O)O[C@H](CC(=O)[O-])C[N+](C)(C)C [Propionyl L-carnitine, propionyl L-carnitine] | 16.25 ± 0.7% | 26.45 ± 1.9% | 14.5 ± 0.7% | 30.5 ± 3.3% | protective effect | 30.3 ± 3.6% | good ability to reduce the extent of the ischaemia | 0.64 ± 0.055 µmol/g tissue | 1.58 ± 0.64 µmol/g tissue | – | at least partially maintaining the ATP concentrations | 30 ± 16 s | 32 ± 12 s | failed to reveal any toxic effects or signs of intolerance
